# Laboratory results published in patent US20080039442A1, “Compounds With Kv4 Ion Channel Activity” (Devgen NV, priority 2004, published 2008).
# Like-named read-outs stand apart in the source and are kept apart here.
# Experiments:
# [1] = target: T1, human Kv4.3/KChIP2.2 potassium channel (Homo sapiens, UniProt Q9UK17); experiment: Whole cell patch clamp, CHO-K1 cells stably expressing Kv4.3/KChIP2.2; format: cell-based; conditions: for remaining activity at 1 µM: CHO-K1
# T1 construct: expressed in transfected cells
# T1 sequence (Q9UK17 1-655): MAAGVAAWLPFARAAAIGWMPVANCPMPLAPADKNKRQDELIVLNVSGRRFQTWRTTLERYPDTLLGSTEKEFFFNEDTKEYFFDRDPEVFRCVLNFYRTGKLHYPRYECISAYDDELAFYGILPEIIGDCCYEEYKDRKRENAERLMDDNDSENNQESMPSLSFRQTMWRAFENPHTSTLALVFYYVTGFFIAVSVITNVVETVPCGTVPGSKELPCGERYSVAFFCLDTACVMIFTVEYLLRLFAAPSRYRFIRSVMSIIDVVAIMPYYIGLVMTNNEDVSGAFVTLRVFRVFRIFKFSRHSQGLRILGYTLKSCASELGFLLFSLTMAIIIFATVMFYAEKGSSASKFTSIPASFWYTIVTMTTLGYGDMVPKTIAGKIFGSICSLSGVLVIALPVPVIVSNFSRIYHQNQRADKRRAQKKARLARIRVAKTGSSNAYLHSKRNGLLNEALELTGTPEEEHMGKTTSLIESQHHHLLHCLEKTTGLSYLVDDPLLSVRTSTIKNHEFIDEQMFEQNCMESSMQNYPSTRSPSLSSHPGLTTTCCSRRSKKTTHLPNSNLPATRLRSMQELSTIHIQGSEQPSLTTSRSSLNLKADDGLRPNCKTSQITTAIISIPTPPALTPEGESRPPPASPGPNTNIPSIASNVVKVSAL
# T1 sequence (Q9NS61 1-270 partner): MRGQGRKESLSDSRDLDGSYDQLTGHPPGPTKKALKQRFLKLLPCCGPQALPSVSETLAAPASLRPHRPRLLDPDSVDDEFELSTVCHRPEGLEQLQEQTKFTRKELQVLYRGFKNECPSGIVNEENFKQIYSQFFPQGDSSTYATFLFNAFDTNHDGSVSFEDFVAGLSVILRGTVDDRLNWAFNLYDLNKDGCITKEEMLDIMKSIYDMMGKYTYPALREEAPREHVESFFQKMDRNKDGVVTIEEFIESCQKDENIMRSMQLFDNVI
# Procedure: For this experiment, a recombinant CHO-K1 cell line stably expressing the human Kv4.3/KChIP2.2 potassium channel was used.
# Protocol B: The cells were cultured in 94 mm culture dishes under the culturing conditions of 5% CO2 and 37° C. Subculturing was performed every 3-4 days, by removing the media and then rising the dish with 8 ml PBS (phosphate buffered saline). The PBS was removed and 1 ml Trypsin/EDTA was added to the cells. The cells were incubated about 2 min at 37° C. or 5 min at room temperature and then the dish was rapped to detach and singularize the cells. To inactivate the enzyme 9 ml of media was added and the solution was pipetted up and down to break up clumps of cells. Part of the suspension was then transferred to a new 94 mm dish and media was added to a final volume of 8 ml. If necessary the cells could be seeded onto 35 mm or 94 mm dishes (2 ml media per 35 mm dish and 8 ml media per 94 mm dish). The media was changed every 2-3 days. The media used was the solution for culturing the cells described above. For stable cells antibiotic G418, Hygromycin, Blasticidin, or Zeocin were not added.
# The preparation of cells for electrophysiological experiments was performed as described in protocol C hereunder.
# Protocol C: The transfected cells and stable cells were transferred from 35 mm cell culture dishes onto coverslips using cold PBS: The media was removed and 0.3 ml of PBS (4-10° C.) was added. The cells were incubated 5 min at room temperature. The dish was rapped to detach and singularize the cells and 1.7 ml media was added and the solution pipetted up and down to break up clumps of cells. Part of the cell suspension was then transferred to a 35 mm dish with coverslips and media. The transfected cells and stable cells could also be transferred from 35 mm cell culture dishes onto coverslips using trypsin: The media was removed and the dish rinsed with 3 ml PBS. The PBS was removed and 0.3 ml 1× Trypsin/EDTA was added and the cells incubated 5 min at room temperature. The dish was rapped to detach and singularize the cells and 1.7 ml media was added and the solution pipetted up and down to break up clumps of cells. Part of the cell suspension was then transferred to a 35 mm dish with coverslips and media.
# 10 mM stock solutions of the compounds were prepared in DMSO. Solutions of the compounds were prepared by dilution of stock solution in bath solution. If the required stock solution volume was theoretically below 1 μl, bath solutions with higher compound concentration were used for dilution. The maximal DMSO concentration during experiments was 0.1% (v/v).
# For patch clamp experiments, the following solutions in demineralized water as vehicle were used (concentration in mM).
# Bath (external) solution: 4 KCl, 135 NaCl, 2 CaCl2, 1 MgCl2, 10 D(+)-Glucose, 5 HEPES, pH 7.4 (NaOH).
# Pipette (internal) solution: 130 KCl, 1 MgCl2, 10 EGTA, 5 Na2ATP, 5 HEPES, pH 7.4 (KOH).
# Experiments were performed using a patch clamp set-up.
# Measurements were performed at room temperature (20-25° C.). […] Each cell acted as its own control. The effect of compounds on Kv4.3/KChIP2.2 mediated currents was investigated at one concentration ([…]) with two replicates each (c=1, n=2).
# The test protocols are illustrated in FIG. 1 and Table 4. […] Each test protocol consisted of 4 segments.
# Subsequently, 14 test pulses (series 1; FIG. 1b and Table 4b) were applied at 0.1 Hz under constant superfusion with bath solution. The protocol was initiated by a voltage jump to −100 mV (400 ms) to achieve full inactivation. Then the Kv4.3/KChIP2.2 channels were transferred to the open state by depolarization to +40 mV for 300 milliseconds (activation). Only cells generating current amplitudes between 1 nA and 50 nA were used for the experimental procedure. No or negligible rundown was observed.
# Then, 36 test pulses (series 2) were applied at 0.1 Hz under constant superfusion with the compound dissolved in bath solution. […]
# hERG potassium channel = hERG potassium channel (Homo sapiens, UniProt Q12809); experiment: Whole cell patch clamp, HEK 293 T-REx HERG cells; conditions: for hERG (%): 10 μM
# [2] = read-out: Kv4.3 charge in %: remaining current measured after application of the compound and relative to the blank
# [3] = read-out: Kv4.3 peak in %: remaining peak height measured after application of the compound and relative to the blank
# Sequence of hERG potassium channel (Q12809 whole entry): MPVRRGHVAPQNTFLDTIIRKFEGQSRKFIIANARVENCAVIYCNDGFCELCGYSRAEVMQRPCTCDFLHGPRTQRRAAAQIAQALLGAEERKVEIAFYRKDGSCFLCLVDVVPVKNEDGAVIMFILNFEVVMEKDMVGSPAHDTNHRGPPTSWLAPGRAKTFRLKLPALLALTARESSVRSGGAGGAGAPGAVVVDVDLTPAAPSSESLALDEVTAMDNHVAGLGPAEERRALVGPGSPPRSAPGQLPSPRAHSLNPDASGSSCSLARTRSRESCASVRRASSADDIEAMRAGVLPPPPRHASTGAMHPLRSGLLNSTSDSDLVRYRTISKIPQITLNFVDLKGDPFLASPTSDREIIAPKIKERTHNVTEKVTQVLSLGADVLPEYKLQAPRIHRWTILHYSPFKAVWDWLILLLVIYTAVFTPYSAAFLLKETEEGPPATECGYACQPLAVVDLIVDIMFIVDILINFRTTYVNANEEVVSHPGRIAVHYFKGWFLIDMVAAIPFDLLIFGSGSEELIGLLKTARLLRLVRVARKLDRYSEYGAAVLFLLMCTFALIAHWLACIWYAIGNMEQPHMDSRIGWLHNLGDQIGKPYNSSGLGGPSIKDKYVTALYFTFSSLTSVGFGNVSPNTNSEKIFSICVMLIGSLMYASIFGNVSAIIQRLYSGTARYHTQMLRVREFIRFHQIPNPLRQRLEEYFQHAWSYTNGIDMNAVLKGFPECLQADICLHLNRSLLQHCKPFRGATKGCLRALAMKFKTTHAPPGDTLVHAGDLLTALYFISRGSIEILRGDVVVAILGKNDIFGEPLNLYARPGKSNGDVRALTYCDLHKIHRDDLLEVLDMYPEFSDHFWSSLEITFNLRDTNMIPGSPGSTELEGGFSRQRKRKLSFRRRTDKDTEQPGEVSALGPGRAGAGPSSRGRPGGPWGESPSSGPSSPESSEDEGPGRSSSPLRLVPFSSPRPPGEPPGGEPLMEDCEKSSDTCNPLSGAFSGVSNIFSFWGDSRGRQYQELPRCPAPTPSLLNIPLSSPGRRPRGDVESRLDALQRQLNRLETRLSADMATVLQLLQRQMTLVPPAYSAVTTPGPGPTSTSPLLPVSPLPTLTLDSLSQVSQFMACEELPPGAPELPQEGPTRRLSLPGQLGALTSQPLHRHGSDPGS
Compound,"remaining activity at 1 µM [1, 2]","remaining activity at 1 µM [1, 3]",hERG (%) (hERG potassium channel),melting point,"IC50 ([1]; Table 12, read-out: Kv4.3 charge IC50)",IC50 (hERG potassium channel),"Ratio hERG/Kv4.3 (hERG potassium channel; selectivity Kv4.3 vs hERG, patch clamp)"
"N#CCCN(Cc1ccccc1)C(=O)c1cc2cc(Cl)ccc2o1 [Compound 109, 5-chloro-benzofuran-2-carboxylic acid benzyl-(2-cyano-ethyl)-amide]",74%,97%,34%,,,,
"COc1ccc(CNC(=O)c2oc3ccc(Cl)cc3c2C)c(OC)c1 [Compound 16, 5-choro-3-methyl-benzofuran-2-carboxylic acid 2,4-dimethoxy-benzylamide]",24%,88%,47%,139.8 to 140.4 °C,,,
"O=C(c1cc2cc(Cl)ccc2o1)N1CCCCC1Cc1ccccc1 (centres unmarked) [Compound 28, (2-benzyl-piperidin-1-yl)-(5-chloro-benzofuran-2-yl)-methanone]",38%,86%,6%,,,,
"COc1ccc(CNC(=O)c2cc3ccccc3s2)c(OC)c1 [Compound 32, benzo[b]thiophene-2-carboxylic acid 2,4-dimethoxy-benzylamide]",75%,100%,,134.4 to 135.3 °C,,,
"O=C(NCc1ccc(-c2cccs2)cc1)c1cc2cc(Cl)ccc2o1 [Compound 34, 5-chloro-benzofuran-2-carboxylic acid 4-thiophen-2-yl-benzylamide]",90%,98%,,173.5 to 175 °C,,,
"Cc1ccc(CNC(=O)c2cc3cc(Cl)ccc3o2)cc1 [Compound 36, 5-chloro-benzofuran-2-carboxylic acid 4-methyl-benzylamide]",72%,89%,,161.9 to 162.9 °C,,,
"COc1ccc(CNC(=O)c2cc3cc(Cl)ccc3n2C)c(OC)c1 [Compound 19, 5-chloro-1-methyl-1H-indole-2-carboxylic acid 2,4-dimethoxy-benzylamide]",44%,87%,35%,150.8 to 152.7 °C,,,
"COc1ccc(CC(=O)Nc2cc3ccccc3o2)c(OC)c1 [Compound 22, N-benzofuran-2-yl-2-(2,4-dimethoxy-phenyl)-acetamide]",90%,100%,,126.4 to 128.2 °C,,,
"CN(C)c1ccc(CNC(=O)c2cc3cc(Cl)ccc3o2)cc1 [Compound 64, 5-chloro-benzofuran-2-carboxylic acid 4-dimethylamino-benzylamide]",76%,85%,,178.6 to 179.7 °C,,,
"CN(C)CC(NC(=O)c1cc2cc(Cl)ccc2o1)c1ccccc1 (centres unmarked) [Compound 49, 5-chloro-benzofuran-2-carboxylic acid (2-dimethylamino-1-phenyl-ethyl)-amide]",85%,98%,,60.2 to 60.4 °C,,,
"O=C(NCc1cccs1)c1cc2cc(Cl)ccc2o1 [Compound 39, 5-chloro-benzofuran-2-carboxylic acid 4-(thiophen-2-ylmethyl)-amide]",90%,91%,,148.4 to 149.9 °C,,,
"Cc1cccc(Cl)c1CNC(=O)c1cc2cc(Cl)ccc2o1 [Compound 62, 5-chloro-benzofuran-2-carboxylic acid 2-chloro-6-methyl-benzylamide]",39%,86%,,168.3 to 168.7 °C,,,
"O=C(c1cc2cc(Cl)ccc2o1)N1Cc2ccccc2C1 [Compound 26, (5-chloro-benzofuran-2-yl)-(1,3-dihydro-isoindol-2-yl)-methanone]",81%,99%,,187.1 to 188.5 °C,,,
"O=C(c1cc2cc(Cl)ccc2o1)N1CCC(c2ccccc2)CC1 [Compound 38, (5-chloro-benzofuran-2-yl)-(4-phenyl-piperidin-1-yl)-methanone]",89%,99%,,101 to 101.6 °C,,,
"CC(C)(C)c1ccc(CNC(=O)c2cc3cc(Cl)ccc3o2)cc1 [Compound 71, 5-chloro-benzofuran-2-carboxylic acid 4-tert-butyl-benzylamide]",71%,95%,,129.5 to 131.1 °C,,,
"O=C(NC1Cc2ccccc2C1)c1cc2cc(Cl)ccc2o1 [Compound 25, 5-chloro-benzofuran-2-carboxylic acid indan-2-ylamide]",82%,100%,,190.2 to 190.5 °C,,,
"CN(CCCN1c2ccccc2CCc2ccccc21)C(=O)c1cc2cc(Cl)ccc2o1 [Compound 4, 5-chloro-benzofuran-2-carboxylic acid [3-(10,11-dihydro-dibenzo[b,f]azepin-5-yl)-propyl]-methyl-amide]",,,,,3.81 µM,20 µM,5.2
"COc1ccc(NC(=O)c2cc3cc(Cl)ccc3o2)c(OC)c1 [Compound 24, 5-chloro-benzofuran-2-carboxylic acid (2,4-dimethoxy-phenyl)-amide]",85%,102%,,161.6 to 163.3 °C,,,
"COc1ccc(CNC(=O)c2cc3c(C(C)=O)ccc(OC)c3o2)c(OC)c1 [Compound 13, 4-acetyl-7-methoxy-benzofuran-2-carboxylic acid 2,4-dimethoxy-benzylamide]",86%,99%,,148.2 to 150.3 °C,,,
"COc1ccc(CNC(=O)c2cnc3ccccc3c2)c(OC)c1 [Compound 42, quinolin-3-carboxylic acid 2,4-dimethoxy-benzylamide]",89%,98%,,136.3 °C,,,
